The source made the active and inactive calls. For most assays here, no stated cut-off is given here; in the data, actives have a measured EC50 and inactives only a lower limit.
Key:
[1] = target: Beta-galactosidase (Escherichia coli, UniProt Q8VNN2); format: functional
[2] = Luminescence Cell-Based Dose Response HTS to Identify Inhibitors of 5'UTR Stem-Loop Driven Prion Protein mRNA Translation in H4 Neuroglioblastoma Cells. [Related pubchem assays: 1827 (Project Summary), 1813 (Primary HTS)]; format: functional
[3] = inhibitors of intracellular T. cruzi replication, confirmation, NIH3T3 host cells, beta-gal luminescence (AID 2044); format: functional, cell-based;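 further: intracellular parasites grown in NIH/3T3 mouse fibroblasts as host cells; luminescent beta-galactosidase reporter signal from transgenic T. cruzi replicating inside host cells; inhibitors lower the luminescence signal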
[4] = inhibitors of SNCA 5'UTR-driven reporter translation, confirmation, H4 neuroglioma cells, luminescence (AID 1988); format: functional, cell-based
[5] = inhibitors of firefly luciferase expression or activity, dose response, H4 neuroglioma cells, luminescence (AID 1990); format: functional, cell-based
[6] = target: Mu-type opioid receptor (Homo sapiens, UniProt P35372); assay: HTS Image-Based Screen for Agonists of the MOR Receptor. [Related pubchem assays (depositor defined):AID1777, AID1785, AID1786, AID2133]; format: functional;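 further: imaging of beta-arrestin GFP recruitment into spots after receptor activation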
Chain of Mu-type opioid receptor (P35372 whole entry): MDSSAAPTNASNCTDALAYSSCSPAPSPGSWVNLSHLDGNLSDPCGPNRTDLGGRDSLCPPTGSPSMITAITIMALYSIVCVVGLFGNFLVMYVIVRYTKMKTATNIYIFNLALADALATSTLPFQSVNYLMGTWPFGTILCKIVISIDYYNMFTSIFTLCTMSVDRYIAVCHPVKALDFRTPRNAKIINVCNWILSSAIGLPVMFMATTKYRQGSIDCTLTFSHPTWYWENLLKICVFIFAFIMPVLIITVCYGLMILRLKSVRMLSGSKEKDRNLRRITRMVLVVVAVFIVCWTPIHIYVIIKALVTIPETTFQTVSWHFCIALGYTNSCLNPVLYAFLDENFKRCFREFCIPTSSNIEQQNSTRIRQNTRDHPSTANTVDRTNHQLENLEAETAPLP

[7] = target: T1, Sentrin-specific protease 6 (Homo sapiens, UniProt Q9GZR1); assay: SAR Analysis of small molecule inhibitors of Sentrin-specific protease 6 (SENP6) using a Luminescent assay. [Related pubchem assays (depositor defined):AID2582, AID2599]; format: functional
T1 sequence (Q9GZR1 whole entry): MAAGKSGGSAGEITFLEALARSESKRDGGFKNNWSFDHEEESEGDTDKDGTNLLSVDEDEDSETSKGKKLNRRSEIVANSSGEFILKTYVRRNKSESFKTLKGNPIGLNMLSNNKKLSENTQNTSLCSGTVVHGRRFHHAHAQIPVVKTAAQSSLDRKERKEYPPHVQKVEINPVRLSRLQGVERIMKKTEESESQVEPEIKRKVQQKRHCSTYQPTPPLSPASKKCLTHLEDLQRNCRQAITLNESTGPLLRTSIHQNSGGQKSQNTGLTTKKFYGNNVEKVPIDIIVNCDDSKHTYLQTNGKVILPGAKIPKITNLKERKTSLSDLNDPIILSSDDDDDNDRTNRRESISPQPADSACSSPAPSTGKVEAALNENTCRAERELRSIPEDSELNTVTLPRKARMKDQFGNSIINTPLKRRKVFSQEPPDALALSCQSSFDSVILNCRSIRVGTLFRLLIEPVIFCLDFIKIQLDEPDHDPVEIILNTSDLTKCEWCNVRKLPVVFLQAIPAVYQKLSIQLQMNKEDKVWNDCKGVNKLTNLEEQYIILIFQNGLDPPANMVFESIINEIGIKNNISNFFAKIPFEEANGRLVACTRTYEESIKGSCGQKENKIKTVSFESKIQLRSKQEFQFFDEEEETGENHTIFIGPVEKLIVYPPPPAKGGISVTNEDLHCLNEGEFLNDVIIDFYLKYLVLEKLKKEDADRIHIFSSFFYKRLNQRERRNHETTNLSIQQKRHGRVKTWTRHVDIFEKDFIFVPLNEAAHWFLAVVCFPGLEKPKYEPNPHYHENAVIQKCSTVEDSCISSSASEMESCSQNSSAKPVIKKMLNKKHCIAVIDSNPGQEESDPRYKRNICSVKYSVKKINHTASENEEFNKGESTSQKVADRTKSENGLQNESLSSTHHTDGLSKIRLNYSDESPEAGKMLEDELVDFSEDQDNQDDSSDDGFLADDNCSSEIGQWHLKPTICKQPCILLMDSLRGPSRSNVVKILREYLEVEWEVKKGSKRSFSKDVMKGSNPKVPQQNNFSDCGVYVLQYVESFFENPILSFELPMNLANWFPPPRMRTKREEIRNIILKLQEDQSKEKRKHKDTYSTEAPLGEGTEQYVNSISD

[8] = target: T2, Sentrin-specific protease 8 (Homo sapiens, UniProt Q96LD8); assay: SENP8 protease inhibitors, SAR follow-up, biochemical, luminescence (AID 504501); format: functional
T2 sequence (Q96LD8 whole entry): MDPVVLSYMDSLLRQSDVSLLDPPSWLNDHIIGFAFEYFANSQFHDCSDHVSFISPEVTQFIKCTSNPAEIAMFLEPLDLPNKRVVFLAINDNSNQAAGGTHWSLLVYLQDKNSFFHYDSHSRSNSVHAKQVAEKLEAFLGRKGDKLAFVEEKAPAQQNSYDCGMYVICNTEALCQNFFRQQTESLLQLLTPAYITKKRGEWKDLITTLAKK

Chain of Beta-galactosidase (Q8VNN2 whole entry): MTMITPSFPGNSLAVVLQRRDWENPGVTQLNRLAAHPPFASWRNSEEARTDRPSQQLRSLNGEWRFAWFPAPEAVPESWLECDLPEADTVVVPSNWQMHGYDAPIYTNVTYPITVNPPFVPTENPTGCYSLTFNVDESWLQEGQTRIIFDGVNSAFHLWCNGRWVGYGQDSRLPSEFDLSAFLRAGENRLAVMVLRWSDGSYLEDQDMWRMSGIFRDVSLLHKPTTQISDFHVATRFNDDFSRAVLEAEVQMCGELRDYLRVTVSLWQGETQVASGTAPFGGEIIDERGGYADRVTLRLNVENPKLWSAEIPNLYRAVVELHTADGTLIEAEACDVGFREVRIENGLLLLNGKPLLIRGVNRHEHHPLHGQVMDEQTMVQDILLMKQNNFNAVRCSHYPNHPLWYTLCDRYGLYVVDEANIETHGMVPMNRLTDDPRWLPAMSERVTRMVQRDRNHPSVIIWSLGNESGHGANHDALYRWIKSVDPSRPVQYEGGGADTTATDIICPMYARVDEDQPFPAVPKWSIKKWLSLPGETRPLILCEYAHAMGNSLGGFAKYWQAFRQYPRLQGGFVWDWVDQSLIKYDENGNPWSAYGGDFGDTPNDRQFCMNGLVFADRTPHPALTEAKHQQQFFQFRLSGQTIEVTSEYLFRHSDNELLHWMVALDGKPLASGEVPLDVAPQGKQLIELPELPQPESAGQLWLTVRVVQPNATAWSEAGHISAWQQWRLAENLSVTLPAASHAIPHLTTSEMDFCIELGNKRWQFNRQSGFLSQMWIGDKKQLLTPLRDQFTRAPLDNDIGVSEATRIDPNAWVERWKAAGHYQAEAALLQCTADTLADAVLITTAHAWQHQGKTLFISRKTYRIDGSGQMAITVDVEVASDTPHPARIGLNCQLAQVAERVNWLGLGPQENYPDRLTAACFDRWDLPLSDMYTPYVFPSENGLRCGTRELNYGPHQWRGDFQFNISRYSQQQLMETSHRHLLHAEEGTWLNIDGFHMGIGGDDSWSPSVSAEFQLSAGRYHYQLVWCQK

Row | Compound | EC50 [1] | EC50 [2] | EC50 [3] | EC50 [4] | EC50 [5] | EC50 [6] | IC50 [7] | IC50 [8]
1 | COc1cc(NC(=O)Cn2ncc(Cl)c(Cl)c2=O)c(C)cc1[N+](=O)[O-] | > 31.5 µM (inactive) | 9.83 µM (active) | 2.39 µM (active) | > 120 µM (not active) | 8.09 µM (active) | > 32 µM (inactive) | – | –
2 | Oc1ccc(/C=N\Nc2cc(N3CCOCC3)nc(N3CCOCC3)n2)c(O)c1 | – | – | – | – | – | – | 31.8 µM (active) | > 99 µM (inactive)
